The values that follow come from patent publication US11613556B2, “Oxysterols and methods of use thereof” (Sage Therapeutics, Inc., priority 2016, dated 2023).

Structures are written as SMILES. Like-named read-outs stand apart in the source and are kept apart here.

Common to all, as to type: cell-based
Assay [1] concerns the target GluN1/GluN2A glutamate receptors (human GRIN1/GRIN2A) expressed in HEK293 cells (Homo sapiens (Human), UniProt Q05586+Q12879). As to the kind of experiment: Whole-cell patch clamp of mammalian cells (Ionworks Barracuda), positive allosteric modulation, GluN1/GluN2A. The following applies: for Emax: read-out: GluN2A PCA EMax (%). As for the experimental part: (§1) NMDA potentiation in mammalian cells which expressed NMDA receptors was assessed using the automatic patch-clamp system can be used determine the NAM activity of compounds as described below. An whole cell patch-clamp system can be used determine the PAM activity of compounds as described below.
(§2) The measurements were performed using Ion Works Barracuda platform following this procedure:
(§3) Electrophysiological Procedures: • a) Intracellular solution (mM): 50 mM CsCl, 90 mM CsF, 2 mM MgCl2, 5 mM EGTA, 10 mM HEPES. Adjust to pH 7.2 with CsOH. • b) Extracellular solution, HB-PS (composition in mM): NaCl, 137; KCl, 1.0; CaCl2, 5; HEPES, 10; Glucose, 10; pH adjusted to 7.4 with NaOH (refrigerated until use). • c) Holding potential: −70 mV, potential during agonist/PAM application: −40 mV.
(§4) Recording Procedure: • a) Extracellular buffer will be loaded into the PPC plate wells (11 μL per well). Cell suspension will be pipetted into the wells (9 μL per well) of the PPC planar electrode. • b) Whole-cell recording configuration will be established via patch perforation with membrane currents recorded by on-board patch clamp amplifiers. • c) Two recordings (scans) will be performed. First, during pre-application of test article alone (duration of pre-application—5 min) and second, during test articles and agonist (EC20 L-glutamate and 30 μM glycine) co-application to detect positive modulatory effects of the test article.
(§5) Test Article Administration: The first pre-application will consist of the addition of 20 μL of 2× concentrated test article solution and, second, of 20 μL of 1× concentrated test article and agonist at 10 μL/s (2 second total application time).
(§6) Potentiating Effect of Positive Allosteric Modulators (PAM) on the Channel
(§7) The maximal amplitude of the evoked currents are measured and defined as Peak Current Amplitude (PCA).

For assay [2], the target named is GluN2B glutamate receptors expressed in mammalian cells (Homo sapiens (Human), UniProt Q05586+Q13224). As to the kind of experiment: Whole-cell patch clamp of mammalian cells (Ionworks Barracuda), positive allosteric modulation, GluN2B. The following applies: for Emax: read-out: GluN2B PCA EMax (%). As for the experimental part:
as §1, §2, §3, §4, §5, §6, §7

In assay [3] the target is glutamate-activated channels of the GRIN1/2A subtype stably transfected in HEK 293 cells (Homo sapiens (Human), UniProt Q05586+Q12879). As to the kind of experiment: Automated patch-clamp system (QPatch HTX), percent potentiation at 1 μM. The following applies: HEK293, 1 μM test compound, 300 μM NMDA with 8 μM glycine, HEK 293 GRIN1/2A, read-out: GluN2A PCA % potentiation at 1 μM. Summed up: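 Tetracycline-induced HEK 293 cells stably expressing human GRIN1/2A were whole-cell recorded on QPatch HTX in Mg-free bath solution at pH 7.4. Compound at 1.0 μM (0.1% DMSO) was co-applied with submaximal 300 μM NMDA plus 8 μM glycine, and percent potentiation was recorded.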
Chain of glutamate-activated channels of the GRIN1/2A subtype stably transfected in HEK 293 cells (Q12879 whole entry, looked up, other chains not shown): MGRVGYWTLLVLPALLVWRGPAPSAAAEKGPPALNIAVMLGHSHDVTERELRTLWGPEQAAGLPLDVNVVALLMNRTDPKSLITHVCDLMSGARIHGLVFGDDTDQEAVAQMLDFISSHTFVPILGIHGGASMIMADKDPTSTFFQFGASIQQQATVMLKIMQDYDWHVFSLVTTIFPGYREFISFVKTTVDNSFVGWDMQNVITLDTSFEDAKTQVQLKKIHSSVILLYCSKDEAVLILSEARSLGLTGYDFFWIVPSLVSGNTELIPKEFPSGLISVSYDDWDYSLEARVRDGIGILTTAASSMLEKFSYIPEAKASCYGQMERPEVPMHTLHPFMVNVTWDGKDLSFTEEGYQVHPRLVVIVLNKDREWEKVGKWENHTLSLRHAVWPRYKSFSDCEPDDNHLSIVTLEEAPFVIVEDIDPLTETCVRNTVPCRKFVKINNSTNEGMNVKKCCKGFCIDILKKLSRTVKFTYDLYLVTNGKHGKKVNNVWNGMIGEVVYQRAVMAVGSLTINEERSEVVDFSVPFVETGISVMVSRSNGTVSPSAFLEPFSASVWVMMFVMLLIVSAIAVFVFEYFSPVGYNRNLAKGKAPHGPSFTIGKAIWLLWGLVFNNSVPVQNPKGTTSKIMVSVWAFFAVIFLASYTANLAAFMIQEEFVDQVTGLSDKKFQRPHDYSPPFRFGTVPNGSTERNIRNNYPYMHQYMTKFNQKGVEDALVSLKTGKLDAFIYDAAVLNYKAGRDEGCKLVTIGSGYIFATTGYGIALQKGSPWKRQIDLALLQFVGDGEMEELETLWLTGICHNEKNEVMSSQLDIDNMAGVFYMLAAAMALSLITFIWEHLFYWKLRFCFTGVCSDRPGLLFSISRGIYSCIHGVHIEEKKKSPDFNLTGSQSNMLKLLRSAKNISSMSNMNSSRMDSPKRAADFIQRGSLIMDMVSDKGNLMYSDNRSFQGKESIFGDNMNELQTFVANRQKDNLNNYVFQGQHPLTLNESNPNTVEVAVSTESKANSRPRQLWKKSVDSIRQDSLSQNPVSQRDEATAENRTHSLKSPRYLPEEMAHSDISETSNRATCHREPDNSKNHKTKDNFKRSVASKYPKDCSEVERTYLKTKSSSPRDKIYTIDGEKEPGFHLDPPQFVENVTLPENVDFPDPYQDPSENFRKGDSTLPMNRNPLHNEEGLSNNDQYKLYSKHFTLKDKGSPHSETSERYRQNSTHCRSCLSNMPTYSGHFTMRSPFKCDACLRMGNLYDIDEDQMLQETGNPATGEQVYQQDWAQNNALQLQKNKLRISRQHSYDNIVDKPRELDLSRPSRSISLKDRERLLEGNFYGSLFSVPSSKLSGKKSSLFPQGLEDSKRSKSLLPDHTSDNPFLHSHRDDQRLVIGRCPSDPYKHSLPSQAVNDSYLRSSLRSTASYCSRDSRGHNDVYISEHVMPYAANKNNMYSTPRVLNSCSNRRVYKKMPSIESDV
(In general: The patch-clamp technique gives a direct electrical read-out from membranes.)

Setting [4] is: peak current amplitude, co-application with EC20 L-glutamate and 30 μM glycine, HEK293, read-out: GluN2A PCA EC50.
[5] abbreviates: peak current amplitude, co-application with EC20 L-glutamate and 30 μM glycine, HEK293.
The mark [6] stands for this setting: peak current amplitude, co-application with EC20 L-glutamate and 30 μM glycine, read-out: GluN2B PCA EC50.
[7] abbreviates: peak current amplitude, co-application with EC20 L-glutamate and 30 μM glycine.

Chain of GluN2B glutamate receptors expressed in mammalian cells (Q13224 27-1484, other chains not shown): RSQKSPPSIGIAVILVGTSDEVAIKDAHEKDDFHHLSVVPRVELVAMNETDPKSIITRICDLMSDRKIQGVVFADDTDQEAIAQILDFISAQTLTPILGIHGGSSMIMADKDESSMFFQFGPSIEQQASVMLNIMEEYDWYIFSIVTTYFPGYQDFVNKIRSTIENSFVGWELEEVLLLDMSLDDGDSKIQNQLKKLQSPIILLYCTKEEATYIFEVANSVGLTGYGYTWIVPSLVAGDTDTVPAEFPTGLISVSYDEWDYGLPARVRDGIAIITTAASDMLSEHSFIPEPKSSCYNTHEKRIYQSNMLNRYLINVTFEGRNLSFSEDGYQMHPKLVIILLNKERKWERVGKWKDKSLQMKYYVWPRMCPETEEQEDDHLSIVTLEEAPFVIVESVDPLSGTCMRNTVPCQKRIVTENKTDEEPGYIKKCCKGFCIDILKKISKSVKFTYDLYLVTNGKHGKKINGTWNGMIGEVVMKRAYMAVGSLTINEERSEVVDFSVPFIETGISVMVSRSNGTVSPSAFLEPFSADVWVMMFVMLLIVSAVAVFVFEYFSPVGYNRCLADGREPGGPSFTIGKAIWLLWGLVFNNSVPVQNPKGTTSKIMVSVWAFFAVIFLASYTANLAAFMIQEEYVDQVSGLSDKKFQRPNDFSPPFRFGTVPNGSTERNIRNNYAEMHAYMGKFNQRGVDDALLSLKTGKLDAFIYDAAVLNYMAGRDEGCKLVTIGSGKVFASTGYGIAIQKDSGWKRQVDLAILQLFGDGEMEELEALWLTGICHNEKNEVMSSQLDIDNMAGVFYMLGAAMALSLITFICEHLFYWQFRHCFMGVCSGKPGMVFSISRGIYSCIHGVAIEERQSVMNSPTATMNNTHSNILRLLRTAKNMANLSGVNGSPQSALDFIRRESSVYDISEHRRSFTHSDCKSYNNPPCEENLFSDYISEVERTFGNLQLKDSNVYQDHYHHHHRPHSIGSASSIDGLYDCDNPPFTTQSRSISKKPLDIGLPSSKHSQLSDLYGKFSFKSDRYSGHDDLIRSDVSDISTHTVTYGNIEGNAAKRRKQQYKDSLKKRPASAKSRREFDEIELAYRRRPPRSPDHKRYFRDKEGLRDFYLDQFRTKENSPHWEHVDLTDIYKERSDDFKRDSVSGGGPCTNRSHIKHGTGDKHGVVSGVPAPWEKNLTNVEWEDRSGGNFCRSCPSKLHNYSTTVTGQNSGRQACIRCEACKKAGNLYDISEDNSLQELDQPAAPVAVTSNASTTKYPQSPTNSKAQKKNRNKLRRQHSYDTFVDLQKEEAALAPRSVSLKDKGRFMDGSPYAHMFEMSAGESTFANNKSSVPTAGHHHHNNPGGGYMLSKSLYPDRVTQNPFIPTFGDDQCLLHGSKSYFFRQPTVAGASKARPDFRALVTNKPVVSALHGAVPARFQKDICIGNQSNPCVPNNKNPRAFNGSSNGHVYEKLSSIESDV
Chain of GluN1/GluN2A glutamate receptors (human GRIN1/GRIN2A) expressed in HEK293 cells (Q12879 whole entry, looked up, other chains not shown): as the sequence (Q12879 whole entry, looked up, other chains not shown) above

By EC50 is commonly meant the midpoint of the concentration-response curve. For orientation: Emax means the maximal effect, on the per cent scale that the assay sets. As for `CC[C@]1(O)CC[C@@]2(C)[C@@H](CC[C@@H]3[C@@H]2CC[C@]2(C)[C@@H]([C@H](C)[C@@H](O)CC4CCC(C)(C)CC4)CC[C@@H]32)C1` [Compound 4, (3S,5S,8R,9S,10S,13S,14S,17R)-17-((2S,3S)-4-(4,4-dimethylcyclohexyl)-3-hydroxybutan-2-yl)-3-ethyl-10,13-dimethylhexadecahydro-1H-cyclopenta[a]phenanthren-3-ol], the EC50 was 1 to 100 nM in assay [1] (setting [4]) and above 1000 nM in assay [2]. Further, the Emax in assay [1] (setting [5]) and in assay [2] was below 100% each time. Further, the activation at 1 µM in assay [3] was below -40%.
Consider `CC[C@]1(O)CC[C@@]2(C)C(=CC[C@H]3[C@@H]4CC[C@H]([C@H](C)[C@H](O)CCC5CC5)[C@@]4(C)CC[C@@H]32)C1` [Compound 6, (3S,8S,9S,10R,13S,14S,17R)-17-((2S,3R)-5-cyclopropyl-3-hydroxypentan-2-yl)-3-ethyl-10,13-dimethyl-2,3,4,7,8,9,10,11,12,13,14,15,16,17-tetradecahydro-1H-cyclopenta[a]phenanthren-3-ol], for which the EC50 in assay [1] and in assay [2] (setting [6]) was above 1000 nM throughout. The Emax in assay [1] (setting [5]) and in assay [2] (setting [7]) was below 100% throughout. For the same compound, the activation at 1 µM in assay [3] was -10 to 10%.
In the case of `CC(C)CC[C@H](O)[C@@H](C)[C@H]1CC[C@H]2[C@@H]3CC[C@H]4C[C@@](C)(O)CC[C@]4(C)[C@H]3CC[C@]12C` [Compound 8, (3S,5S,8R,9S,10S,13S,14S,17R)-17-((2S,3S)-3-hydroxy-6-methylheptan-2-yl)-3,10,13-trimethylhexadecahydro-1H-cyclopenta[a]phenanthren-3-ol], the EC50 in assay [1] and in assay [2] (setting [6]) was above 1000 nM each time. Besides, the Emax in assay [1] (setting [5]) and in assay [2] (setting [7]) was below 100% each time. In assay [3], the activation at 1 µM was below -40%.
Take `CC[C@]1(O)CC[C@@]2(C)C(=CC[C@H]3[C@@H]4CC[C@H]([C@H](C)[C@H](O)CC5CCC(C)(C)CC5)[C@@]4(C)CC[C@@H]32)C1` [Compound 12, (3S,8S,9S,10R,13S,14S,17R)-17-((2S,3R)-4-(4,4-dimethylcyclohexyl)-3-hydroxybutan-2-yl)-3-ethyl-10,13-dimethyl-2,3,4,7,8,9,10,11,12,13,14,15,16,17-tetradecahydro-1H-cyclopenta[a]phenanthren-3-ol]: the EC50 in assay [1] and in assay [2] (setting [6]) was above 1000 nM in each case. Further, the maximum response (Emax) in assay [1] (setting [5]) and in assay [2] (setting [7]) was below 100% throughout. Besides, in assay [3], the activation at 1 µM is -10 to 10%.
Regarding `CC[C@]1(O)CC[C@@]2(C)[C@@H](CC[C@@H]3[C@@H]2CC[C@]2(C)[C@@H]([C@H](C)[C@H](O)CC4CCC(C)(C)CC4)CC[C@@H]32)C1` [Compound 20, (3S,5S,8R,9S,10S,13S,14S,17R)-17-((2S,3R)-4-(4,4-dimethylcyclohexyl)-3-hydroxybutan-2-yl)-3-ethyl-10,13-dimethylhexadecahydro-1H-cyclopenta[a]phenanthren-3-ol], the EC50 in assay [1] (setting [4]) and in assay [2] was above 1000 nM each time. Moreover, the Emax in assay [1] (setting [5]) and in assay [2] was below 100% in each case. Besides, in assay [3], the activation at 1 µM is -40 to -10%.
`CCC[C@H](O)[C@@H](C)[C@H]1CC[C@H]2[C@@H]3CC[C@@H]4C[C@](O)(CC)CC[C@]4(C)[C@H]3CC[C@]12C` [Compound 23, (3S,5R,8R,9S,10S,13S,14S,17R)-3-ethyl-17-((2S,3S)-3-hydroxyhexan-2-yl)-10,13-dimethylhexadecahydro-1H-cyclopenta[a]phenanthren-3-ol]: the EC50 in assay [1] and in assay [2] (setting [6]) was above 1000 nM in each case. The Emax in assay [1] (setting [5]) is below 100%; in assay [2] (setting [7]), 100 to 500%. The activation at 1 µM in assay [3] is -40 to -10%.
Consider `CC[C@]1(O)CC[C@@]2(C)[C@@H](CC[C@@H]3[C@@H]2CC[C@]2(C)[C@@H]([C@H](C)[C@@H](O)Cc4ccccc4)CC[C@@H]32)C1` [Compound 32, (3S,5S,8R,9S,10S,13S,14S,17R)-3-ethyl-17-((2S,3S)-3-hydroxy-4-phenylbutan-2-yl)-10,13-dimethylhexadecahydro-1H-cyclopenta[a]phenanthren-3-ol], for which the EC50 in assay [1] and in assay [2] (setting [6]) was above 1000 nM throughout. The Emax in assay [1] (setting [5]) and in assay [2] (setting [7]) was below 100% in each case. Also, the activation at 1 µM in assay [3] was -10 to 10%.
In the case of `CCC[C@H](O)[C@@H](C)[C@H]1CC[C@H]2[C@@H]3CC[C@H]4C[C@](O)(CC)CC[C@]4(C)[C@H]3CC[C@]12C` [Compound 38, (3S,5S,8R,9S,10S,13S,14S,17R)-3-ethyl-17-((2S,3S)-3-hydroxyhexan-2-yl)-10,13-dimethylhexadecahydro-1H-cyclopenta[a]phenanthren-3-ol], the EC50 in assay [1] and in assay [2] (setting [6]) was above 1000 nM in each case. Further, the Emax in assay [1] (setting [5]) and in assay [2] (setting [7]) was below 100% each time. The activation at 1 µM in assay [3] is -40 to -10%.
For the compound `CC[C@]1(O)CC[C@H]2[C@@H](CC[C@@H]3[C@@H]2CC[C@]2(C)[C@@H]([C@H](C)[C@H](O)CCC(C)C)CC[C@@H]32)C1` [Compound 40, (3S,5S,8R,9R,10S,13S,14S,17R)-3-ethyl-17-((2S,3R)-3-hydroxy-6-methylheptan-2-yl)-13-methylhexadecahydro-1H-cyclopenta[a]phenanthren-3-ol], the EC50 in assay [1] and in assay [2] (setting [6]) was above 1000 nM each time. The Emax in assay [1] (setting [5]) was below 100%; in assay [2] (setting [7]), 100 to 500%. Further, the activation at 1 µM in assay [3] was -10 to 10%.
Regarding `CC[C@]1(O)CC[C@@]2(C)C(=CC[C@H]3[C@@H]4CC[C@H]([C@H](C)[C@H](O)CC5CCCC5)[C@@]4(C)CC[C@@H]32)C1` [Compound 46, (3S,8S,9S,10R,13S,14S,17R)-17-((2S,3R)-4-cyclopentyl-3-hydroxybutan-2-yl)-3-ethyl-10,13-dimethyl-2,3,4,7,8,9,10,11,12,13,14,15,16,17-tetradecahydro-1H-cyclopenta[a]phenanthren-3-ol], the EC50 in assay [1] and in assay [2] (setting [6]) was above 1000 nM each time. In addition, the Emax in assay [1] (setting [5]) and in assay [2] (setting [7]) was below 100% throughout. In assay [3], the activation at 1 µM is -40 to -10%.
For `CC[C@]1(O)CC[C@@]2(C)[C@H](CC[C@@H]3[C@@H]2CC[C@]2(C)[C@@H]([C@H](C)[C@@H](O)CC4CCC(C)(C)CC4)CC[C@@H]32)C1` [Compound 59, (3S,5R,8R,9S,10S,13S,14S,17R)-17-((2S,3S)-4-(4,4-dimethylcyclohexyl)-3-hydroxybutan-2-yl)-3-ethyl-10,13-dimethylhexadecahydro-1H-cyclopenta[a]phenanthren-3-ol], the EC50 in assay [1] (setting [4]) and in assay [2] was above 1000 nM throughout. Moreover, the maximal effect (Emax) in assay [1] (setting [5]) and in assay [2] was below 100% each time. In assay [3], the activation at 1 µM was below -40%.
As to `CC[C@]1(O)CC[C@@]2(C)[C@H](CC[C@@H]3[C@@H]2CC[C@]2(C)[C@@H]([C@H](C)[C@H](O)CC4CCCC4)CC[C@@H]32)C1` [Compound 67, (3S,5R,8R,9S,10S,13S,14S,17R)-17-((2S,3R)-4-cyclopentyl-3-hydroxybutan-2-yl)-3-ethyl-10,13-dimethylhexadecahydro-1H-cyclopenta[a]phenanthren-3-ol], the EC50 in assay [1] and in assay [2] (setting [6]) was above 1000 nM in each case. The Emax in assay [1] (setting [5]) and in assay [2] (setting [7]) was below 100% in each case. In assay [3], the activation at 1 µM was -10 to 10%.
